Tested on: HCT 116 (colon)
Assay: Human xenograft model, tumor growth inhibition
Format: in vivo, female athymic nude mice
Conditions: A8 50 mg/kg po qd x 14 + vehicle (saline) iv D1,8,15
Procedure: To assess in vivo antitumor activity in human xenograft models, female athymic nude mice, 12 to 14 weeks of age, were implanted subcutaneously in the flank with human cancer cells. When the tumors reached approximately 100 mm^3 in size, the mice were pair-matched into various treatment groups. For oral administration, compounds were dissolved in a mixture of 0.5% methylcellulose and 0.1% Tween 80 and administered by gavage to the tumor-bearing mice. For i.v.andi.p..administration, compounds were dissolved in 0.9% NaCI and for the i.v. administration, the compound was administered via the tail vein.
Percent tumor growth inhibition (%TGI) was calculated as %TGI = (Cday a−Tday a)/(Cday a−Cday 1) × 100 [formula]
Where C is the median tumor volume of the control group, T is the median tumor volume of the treatment group, and day a is the day of assessment.
It is evident that the combination of a benzimidazole based anti-cancer agent such as Compound (A8) with the different anti-cancer agents enhanced the anti-tumor effect as compared to administering either of the drug on its own. Table 5: Examples of combination of Compound (A8) and anti-cancer agents in in vivo cancer models

CCCCc1nc2cc(/C=C/C(=O)NO)ccc2n1CCN(CC)CC [Compound A8, 3-[2-Butyl-1-(2-diethylamino-ethyl)-1H-benzimidazol-5-yl]-N-hydroxy-acrylamide]
%TGI at Day 15: 64%

From patent EP3449923A1, “COMBINATION OF BEN[…]-CANCER AGENT AND A SECOND ANTI-CANCER AGENT” (MEI Pharma, Inc., priority 2007, dated 2008)
